Source: the NIST ThermoML archive (doi:10.1021/je049534w)
“And” between values parts separate entries of the source, which are not always exact repeats. Equal values may be shown once.

Assays:
[1] = Solid-liquid equilibrium temperature; conditions: Crystal, Speed of sound
[2] = Liquid, Linear variable-path acoustic interferometer

CCCCn1cc[n+](C)c1.F[P-](F)(F)(F)(F)F [1-butyl-3-methylimidazolium hexafluorophosphate]
[1]
Conditions | Solid-liquid equilibrium temperature [K]
100 kPa | 285
34000 kPa | 291.15
40200 kPa | 293.15
42500 kPa | 294.16
55000 kPa | 296.15
88900 kPa | 303.15

[2]
Conditions | speed of sound
283.16 K, 100 kPa | 1455.5 m/s and 1457.6 m/s
283.16 K, 5088 kPa | 1468.6 m/s
283.16 K, 5131 kPa | 1470.6 m/s
283.16 K, 10263 kPa | 1481.8 m/s
283.16 K, 20249 kPa | 1506.7 m/s
283.16 K, 29954 kPa | 1529.9 m/s
283.16 K, 29995 kPa | 1532.5 m/s
283.16 K, 44961 kPa | 1564.2 m/s
283.16 K, 59682 kPa | 1596.7 m/s
283.16 K, 59829 kPa | 1599.6 m/s
283.16 K, 79904 kPa | 1638.6 m/s
283.16 K, 99077 kPa | 1677.1 m/s
283.16 K, 124179 kPa | 1724.4 m/s
283.16 K, 150925 kPa | 1772.6 m/s
291.15 K, 100 kPa | 1440.2 m/s
291.15 K, 5069 kPa | 1453.3 m/s
291.15 K, 10166 kPa | 1466.6 m/s
291.15 K, 20400 kPa | 1492.4 m/s
291.15 K, 30019 kPa | 1515.7 m/s
291.15 K, 44920 kPa | 1550 m/s
291.15 K, 59912 kPa | 1583.2 m/s
293.16 K, 100 kPa | 1432.8 m/s and 1431.6 m/s
293.16 K, 5157 kPa | 1446.5 m/s
293.16 K, 10195 kPa | 1459 m/s
293.16 K, 20215 kPa | 1484.2 m/s
293.16 K, 29959 kPa | 1507.9 m/s
293.16 K, 44757 kPa | 1542.2 m/s
293.16 K, 59732 kPa | 1574.7 m/s
293.16 K, 78627 kPa | 1613.8 m/s
293.16 K, 99149 kPa | 1654.5 m/s
294.16 K, 5125 kPa | 1444.5 m/s
294.16 K, 10105 kPa | 1457.2 m/s
294.16 K, 20357 kPa | 1483.2 m/s
294.16 K, 29785 kPa | 1506 m/s
303.16 K, 100 kPa | 1410.3 m/s
303.16 K, 5078 kPa | 1423.5 m/s
303.16 K, 10204 kPa | 1437.1 m/s
303.16 K, 20225 kPa | 1462.8 m/s
303.16 K, 44714 kPa | 1521.3 m/s
303.16 K, 59773 kPa | 1554.6 m/s
303.16 K, 98921 kPa | 1634.4 m/s
313.16 K, 100 kPa | 1389.5 m/s
313.16 K, 5010 kPa | 1402.8 m/s
313.16 K, 10043 kPa | 1416.4 m/s
313.16 K, 20319 kPa | 1443.3 m/s
313.16 K, 41702 kPa | 1495.1 m/s
313.16 K, 44866 kPa | 1502.9 m/s
313.16 K, 59754 kPa | 1536.3 m/s
313.16 K, 79721 kPa | 1578.6 m/s
313.16 K, 99097 kPa | 1617.4 m/s
313.16 K, 125283 kPa | 1662.2 m/s
323.25 K, 100 kPa | 1368 m/s
323.25 K, 5061 kPa | 1381.8 m/s
323.25 K, 9942 kPa | 1395.4 m/s
323.25 K, 20234 kPa | 1422.7 m/s
323.25 K, 29721 kPa | 1446.8 m/s
323.25 K, 44935 kPa | 1482.2 m/s
323.25 K, 59711 kPa | 1516 m/s
323.25 K, 79553 kPa | 1557.9 m/s
323.25 K, 98901 kPa | 1592.5 m/s
